Assays:
[1] = biological target: T1, human TLR8 (Homo sapiens, UniProt Q9NR97); assay: TLR8 cellular reporter assay (HEK293, NFκB-luc); format: cell-based; conditions: HEK293 cells transfected with CMV-TLR8 and NFκB-luc, 6 hours incubation; lowest effective concentration
T1 construct: expressed in transfected cells; host or cells: HEK293 cells, transient transfection with TLR8 plasmid and NFκB-luc plasmid
T1 sequence (Q9NR97 27-1041): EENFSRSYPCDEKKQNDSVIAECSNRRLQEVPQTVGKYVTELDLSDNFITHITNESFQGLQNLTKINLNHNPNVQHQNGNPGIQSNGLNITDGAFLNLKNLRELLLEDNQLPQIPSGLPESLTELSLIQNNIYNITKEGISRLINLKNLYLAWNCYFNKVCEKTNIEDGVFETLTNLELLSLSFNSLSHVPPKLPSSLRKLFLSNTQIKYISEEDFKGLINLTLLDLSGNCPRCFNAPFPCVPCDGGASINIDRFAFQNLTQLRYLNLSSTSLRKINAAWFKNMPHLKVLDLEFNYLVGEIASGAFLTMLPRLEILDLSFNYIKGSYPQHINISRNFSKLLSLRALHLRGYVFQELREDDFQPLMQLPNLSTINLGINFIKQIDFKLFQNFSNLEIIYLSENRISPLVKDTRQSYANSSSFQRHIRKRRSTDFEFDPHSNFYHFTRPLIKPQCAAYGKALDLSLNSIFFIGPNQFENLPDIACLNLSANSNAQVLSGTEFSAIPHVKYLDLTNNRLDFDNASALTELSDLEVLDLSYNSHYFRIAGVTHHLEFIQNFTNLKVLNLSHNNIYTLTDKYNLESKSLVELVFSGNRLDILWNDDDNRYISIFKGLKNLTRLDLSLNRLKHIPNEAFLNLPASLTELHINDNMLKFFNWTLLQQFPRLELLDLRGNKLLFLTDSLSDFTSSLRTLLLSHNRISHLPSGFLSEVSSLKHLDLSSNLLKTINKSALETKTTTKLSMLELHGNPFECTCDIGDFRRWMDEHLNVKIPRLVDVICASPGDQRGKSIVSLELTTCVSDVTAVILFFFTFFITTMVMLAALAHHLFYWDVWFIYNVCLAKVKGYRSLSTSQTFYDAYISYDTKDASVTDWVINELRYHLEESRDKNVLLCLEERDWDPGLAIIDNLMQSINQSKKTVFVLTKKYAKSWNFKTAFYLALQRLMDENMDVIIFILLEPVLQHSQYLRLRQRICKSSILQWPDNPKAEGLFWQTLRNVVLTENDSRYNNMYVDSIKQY
Experimental: (§1) The ability of compounds to activate human TLR7 and/or TLR8 was assessed in a cellular reporter assay using HEK293 cells transiently transfected with a TLR7 or TLR8 expression vector and NFκB-luc reporter construct.
(§2) Briefly, HEK293 cells were grown in culture medium (DMEM supplemented with 10% FCS and 2 mM Glutamine). […] Thirty microliters of cells were then dispensed into each well in 384-well plates, where 10 μL of compound in 4% DMSO was already present. Following 6 hours incubation at 37° C., 5% CO2, the luciferase activity was determined by adding 15 μL of Steady Lite Plus substrate (Perkin Elmer) to each well and readout performed on a ViewLux ultraHTS microplate imager (Perkin Elmer). Dose response curves were generated from measurements performed in quadruplicates.

[2] = biological target: T2, human TLR7 (Homo sapiens, UniProt Q9NYK1); assay: TLR7 cellular reporter assay (HEK293, NFκB-luc); format: cell-based; conditions: HEK293 cells transfected with CMV-TLR7 and NFκB-luc, 6 hours incubation; lowest effective concentration
T2 construct: expressed in transfected cells; host or cells: HEK293 cells, transient transfection with CMV-TLR7 plasmid and NFκB-luc plasmid
T2 sequence (Q9NYK1 27-1049): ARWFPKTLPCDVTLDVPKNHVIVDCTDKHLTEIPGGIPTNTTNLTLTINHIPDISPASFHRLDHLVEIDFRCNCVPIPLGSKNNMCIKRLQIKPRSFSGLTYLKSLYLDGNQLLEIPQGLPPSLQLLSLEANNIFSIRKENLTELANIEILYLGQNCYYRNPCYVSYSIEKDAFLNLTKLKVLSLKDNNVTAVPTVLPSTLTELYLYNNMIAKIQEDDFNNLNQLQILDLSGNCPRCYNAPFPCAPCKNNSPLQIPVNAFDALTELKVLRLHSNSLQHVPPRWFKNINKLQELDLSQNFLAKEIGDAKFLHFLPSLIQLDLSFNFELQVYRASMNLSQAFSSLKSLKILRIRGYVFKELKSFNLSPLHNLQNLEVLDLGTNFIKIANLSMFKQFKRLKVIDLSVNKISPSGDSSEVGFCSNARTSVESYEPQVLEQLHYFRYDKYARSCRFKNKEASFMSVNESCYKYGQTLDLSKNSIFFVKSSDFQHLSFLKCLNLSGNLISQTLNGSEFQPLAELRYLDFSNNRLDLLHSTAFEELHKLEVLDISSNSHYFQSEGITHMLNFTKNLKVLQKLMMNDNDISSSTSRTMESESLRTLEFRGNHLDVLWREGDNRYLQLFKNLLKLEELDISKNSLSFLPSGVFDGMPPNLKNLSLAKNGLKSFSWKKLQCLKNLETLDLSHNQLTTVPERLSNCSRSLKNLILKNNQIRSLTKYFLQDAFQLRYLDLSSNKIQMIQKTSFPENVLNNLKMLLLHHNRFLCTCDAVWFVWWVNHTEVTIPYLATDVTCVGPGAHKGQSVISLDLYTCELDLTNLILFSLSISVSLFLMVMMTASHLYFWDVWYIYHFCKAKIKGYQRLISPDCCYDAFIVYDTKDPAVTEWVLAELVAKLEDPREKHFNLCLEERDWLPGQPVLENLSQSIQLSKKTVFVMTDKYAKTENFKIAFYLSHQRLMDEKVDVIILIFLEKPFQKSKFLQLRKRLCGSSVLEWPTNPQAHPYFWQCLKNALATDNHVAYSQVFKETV
Experimental: as §1, §2

[3] = system: interferon-stimulated responsive elements (ISRE); assay: Activation of ISRE promoter elements by conditioned media from PBMC (HEK-ISREluc); format: cell-based, human; conditions: Homo sapiens; conditioned media from PBMC transferred to HEK-ISREluc cells, 24 hours; lowest effective concentration; read-out: PBMC LEC
Experimental: The potential of compounds to induce IFN-I was also evaluated by measuring the activation of interferon-stimulated responsive elements (ISRE) by conditioned media from PBMC. The ISRE element of sequence […] (SEQ. ID NO:1) is highly responsive to the STAT1-STAT2-IRF 9 transcription factor, activated upon binding of IFN-I to their receptor IFNAR (Clontech, PT3372-5W). […] A HEK293 cell line stably transfected with pISRE-Luc (HEK-ISREluc) was established to profile of the conditioned PBMC cell culture media.
Briefly, PBMCs were prepared from buffy coats of at least two donors using a standard Ficoll centrifugation protocol. Isolated PBMCs were resuspended in RPMI medium supplemented with 10% human AB serum and 2×10^5 cells/well were dispensed into 384-well plates containing compounds (70 μL total volume). After overnight incubation, 10 μL of supernatant was transferred to 384-well plates containing 5×10^3 HEK-ISREluc cells/well in 30 μL (plated the day before). Following 24 hours of incubation, activation of the ISRE elements was measured by assaying luciferase activity using 40 μL/well Steady Lite Plus substrate (Perkin Elmer) and measured with ViewLux ultraHTS microplate imager (Perkin Elmer). The stimulating activity of each compound on the HEK-ISREluc cells was reported as LEC value, defined as the compound concentration applied to the PBMCs resulting in a luciferase activity at least two fold above the standard deviation of the assay. The LEC in turn indicates the degree of ISRE activation on transfer of a defined amount of PBMC culture medium. Recombinant interferon α-2a (Roferon-A) was used as a standard control compound.

| SMILES | TLR8 LEC [1] [µM] | TLR7 LEC [2] [µM] | minimal effective concentration [3] [µM] |
| --- | --- | --- | --- |
| COCCn1ccc2nc(N)nc(N[C@H](C)c3ccccn3)c21 (single isomer, unassigned) [Compound 151] | >25 | 12.8 | 2.58 |
| COCCn1ccc2nc(N)nc(N[C@@H](C)c3ccccn3)c21 (single isomer, unassigned) [Compound 152] | >25 | 0.73 | 0.142 |
| C[C@@H](Nc1nc(N)nc2ccn(Cc3ccccn3)c12)c1ccccn1 (single isomer, unassigned) [Compound 194] | >25 |  |  |
| C[C@H](Nc1nc(N)nc2ccn(Cc3ccccn3)c12)c1ccccn1 (single isomer, unassigned) [Compound 195] | >25 |  |  |
| CCCCNc1nc(N)nc2ccn(Cc3ccccc3Oc3ccccc3)c12 [Compound 2] | >25 | 0.50 | 0.6 |
| CCCCNc1nc(N)nc2ccn(Cc3cc(F)ccc3Br)c12 [Compound 3] | >25 | 2.6 | 1.2 |
| Cc1cc(CNc2nc(N)nc3ccn(Cc4ccccn4)c23)no1 [Compound 89] | >25 |  |  |
| COCCNc1nc(N)nc2ccn(Cc3ccccn3)c12 [Compound 119] | >25 |  |  |
| Cc1cc(CNc2nc(N)nc3ccn(Cc4ccc(C(F)(F)F)cn4)c23)no1 [Compound 122] | >25 |  |  |
| COc1ccc(Cn2ccc3nc(N)nc(NCc4cc(C)on4)c32)nc1OC [Compound 124] | >22 |  |  |
| Cc1cc(CNc2nc(N)nc3ccn(Cc4ncccc4F)c23)no1 [Compound 125] | >25 |  |  |
| Nc1nc(NCc2cc(C3CC3)on2)c2c(ccn2Cc2ccccn2)n1 [Compound 126] | >25 |  |  |
| CC(C)c1cc(CNc2nc(N)nc3ccn(Cc4ccccn4)c23)no1 [Compound 127] | >25 |  |  |
| COc1cccc(Cn2ccc3nc(N)nc(NCc4cc(C)on4)c32)n1 [Compound 131] | 24.6 |  |  |
| Nc1nc(NCc2nccs2)c2c(ccn2Cc2ccccn2)n1 [Compound 136] | >25 |  |  |
| COCCCNc1nc(N)nc2ccn(Cc3ccccn3)c12 [Compound 138] | >25 |  |  |
| CCOCCNc1nc(N)nc2ccn(Cc3ccccn3)c12 [Compound 140] | >25 |  |  |
| CCC(O)CNc1nc(N)nc2ccn(Cc3ccccn3)c12 (centres unmarked) [Compound 141] | >25 |  |  |

| SMILES | TLR8 LEC [1] [µM] | TLR7 LEC [2] [µM] | minimal effective concentration [3] [µM] |
| --- | --- | --- | --- |
| Nc1nc(NCc2ncco2)c2c(ccn2Cc2ccccn2)n1 [Compound 142] | >25 |  |  |
| Cc1cc(CNc2nc(N)nc3ccn(Cc4ccc(F)cn4)c23)no1 [Compound 144] | >25 |  |  |
| Cc1cc(CNc2nc(N)nc3ccn(Cc4cc(C(F)(F)F)ccn4)c23)no1 [Compound 145] | >25 |  |  |
| Nc1nc(NCc2ccon2)c2c(ccn2Cc2ccccn2)n1 [Compound 155] | >25 |  |  |
| Cc1cc(CNc2nc(N)nc3ccn(Cc4ncccc4Cl)c23)no1 [Compound 156] | >25 |  |  |
| Cc1cc(CNc2nc(N)nc3ccn(Cc4cc(Cl)ccn4)c23)no1 [Compound 158] | >25 |  |  |
| COCCNc1nc(N)nc2ccn(CC(=O)N(C)C)c12 [Compound 166] |  | 4.88 |  |
| COc1cccnc1Cn1ccc2nc(N)nc(NCc3cc(C)on3)c21 [Compound 170] | >25 |  |  |
| COc1ccc(Cn2ccc3nc(N)nc(NCc4cc(C)on4)c32)nc1 [Compound 171] | >25 | 0.02 |  |
| Cc1nc(CNc2nc(N)nc3ccn(Cc4ccccn4)c23)cs1 [Compound 174] | >25 |  |  |
| Cc1cc(CNc2nc(N)nc3ccn(Cc4ccccn4)c23)on1 [Compound 184] | >25 |  |  |
| Cc1ccc(CNc2nc(N)nc3ccn(Cc4ccccn4)c23)nc1 [Compound 189] | >25 |  |  |
| CC(Nc1nc(N)nc2ccn(Cc3ccccn3)c12)c1ccccn1 (centres unmarked) [Compound 190] | >25 |  |  |
| Cc1cnc(CNc2nc(N)nc3ccn(Cc4ccccn4)c23)o1 [Compound 191] | >25 |  |  |
| Cc1cnc(CNc2nc(N)nc3ccn(Cc4ccccn4)c23)s1 [Compound 207] | 23 |  |  |
| Cc1coc(CNc2nc(N)nc3ccn(Cc4ccccn4)c23)n1 [Compound 214] | >25 |  |  |
| Cc1nnc(CNc2nc(N)nc3ccn(Cc4ccccn4)c23)o1 [Compound 216] | >25 |  |  |

From patent US11220504B2, “Pyrrolo[3,2-d] pyrimidine derivatives for the treatment of viral infections and other diseases” (JANSSEN SCIENCES IRELAND UNLIMITED COMPANY, priority 2012, dated 2022)
